Test results published in patent publication US12281149B2, “Modulators of G-protein coupled receptors” (priority 2021, dated 2025).
pEC50: −log10 of the molar value. *1 amine or outer side, *2 acyl side, *3 side chain or, on linkers, in order; H or OH if unused. Where a SMILES comes first, the peptide text is derived from it. Side-chain parts run from the residue outwards. [ ]: non-standard residue; d: D form. The star is where a group is joined. Isobutyryl(2-(3-CN-5-F-Ph)) = CC(C)(C(=O)*)c1cc(F)cc(C#N)c1; C20 diacid = O=C(O)CCCCCCCCCCCCCCCCCCC(=O)*; γGlu = O=C(O)[C@H](CCC(=O)[*:2])N[*:1]; X24 = O=C(C1(c2cccnc2)CCC1)*; d(β3hA) = C[C@@H](N)CC(=O)O; AEEA = NCCOCCOCC(=O)O; Aib = CC(C)(N)C(=O)O; GABA = NCCCC(=O)O; βAla = NCCC(=O)O

Tests used:
Format in all cases: cell-based
GIP receptor [1] = molecular target: T1, GIP receptor (Homo sapiens, UniProt P48546); experiment: PathHunter β-arrestin assay, GIP receptor; design: host or cells: PathHunter CHO-K1 GIPR β-Arrestin Cell Line; conditions: β-arrestin-2 recruitment, PathHunter CHO-K1 GIPR β-Arrestin Cell Line, 90 min at 37° C.; normalized to GIP; read-out: GIPR β Arrestin EC50
T1 sequence (P48546 22-466): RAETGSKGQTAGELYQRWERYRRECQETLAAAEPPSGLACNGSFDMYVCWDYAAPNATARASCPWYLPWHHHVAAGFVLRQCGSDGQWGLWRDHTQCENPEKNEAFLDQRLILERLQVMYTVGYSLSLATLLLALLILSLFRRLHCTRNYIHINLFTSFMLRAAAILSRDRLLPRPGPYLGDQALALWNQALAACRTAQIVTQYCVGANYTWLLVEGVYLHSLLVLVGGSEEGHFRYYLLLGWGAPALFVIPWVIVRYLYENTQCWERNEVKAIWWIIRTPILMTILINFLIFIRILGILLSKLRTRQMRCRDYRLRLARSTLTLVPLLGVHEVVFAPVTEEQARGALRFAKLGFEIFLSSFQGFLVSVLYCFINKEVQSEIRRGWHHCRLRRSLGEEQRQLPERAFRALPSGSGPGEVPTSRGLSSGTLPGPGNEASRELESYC

GIP receptor [2] = molecular target: T1, GIP receptor; experiment: HitHunter cAMP assay, GIP receptor; conditions: for pEC50: CHO cells stably expressing GIP receptor, cAMP accumulation, 30 min, read-out: EC50 GIP-1R; for Emax: CHO cells, cAMP, normalized to maximum signal from GIP (high) and DMSO (low), read-out: Emax GIP-1R
GLP-1 receptor [3] = molecular target: T2, GLP-1 receptor (Homo sapiens, UniProt P43220); experiment: PathHunter β-arrestin assay, GLP-1 receptor; design: host or cells: PathHunter CHO-K1 GLP1R β-Arrestin Cell Line; conditions: β-arrestin-2 recruitment, PathHunter CHO-K1 GLP1R β-Arrestin Cell Line, 90 min at 37° C.; normalized to GLP-1; read-out: GLP-1R β Arrestin EC50
T2 sequence (P43220 24-463): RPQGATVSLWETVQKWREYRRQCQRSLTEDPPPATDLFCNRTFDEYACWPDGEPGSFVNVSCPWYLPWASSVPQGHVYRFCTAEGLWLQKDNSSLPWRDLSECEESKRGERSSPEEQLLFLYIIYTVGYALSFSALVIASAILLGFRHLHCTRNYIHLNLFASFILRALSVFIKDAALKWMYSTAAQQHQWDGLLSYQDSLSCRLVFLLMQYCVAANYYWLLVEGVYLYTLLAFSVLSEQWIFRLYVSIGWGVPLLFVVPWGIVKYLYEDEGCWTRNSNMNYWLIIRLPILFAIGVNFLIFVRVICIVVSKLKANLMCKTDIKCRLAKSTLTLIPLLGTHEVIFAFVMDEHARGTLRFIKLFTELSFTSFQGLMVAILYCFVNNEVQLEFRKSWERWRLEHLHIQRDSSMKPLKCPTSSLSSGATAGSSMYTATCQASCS

GLP-1 receptor [4] = molecular target: T2, GLP-1 receptor; experiment: HitHunter cAMP assay, GLP-1 receptor; conditions: for pEC50: CHO cells stably expressing human GLP-1 receptor, cAMP accumulation, 30 min, read-out: EC50 GLP-1R; for Emax: CHO cells, cAMP, normalized to maximum signal from GLP-1 (high) and DMSO (low), read-out: Emax GLP-1R

| SMILES | pEC50 (GIP receptor [1]) | pEC50 (GIP receptor [2]) | Emax (GIP receptor [2]) [%] | pEC50 (GLP-1 receptor [3]) | pEC50 (GLP-1 receptor [4]) | Emax (GLP-1 receptor [4]) [%] |
| --- | --- | --- | --- | --- | --- | --- |
| CC[C@H](C)[C@H](NC(=O)[C@H](CC(C)C)NC(=O)[C@H](Cc1c[nH]c2ccccc12)NC(=O)[C@H](CCC(N)=O)NC(=O)[C@@H](NC(=O)[C@H](Cc1ccccc1)NC(=O)[C@H](C)NC(=O)[C@H](CCCCNC(=O)COCCOCCNC(=O)COCCOCCNC(=O)CC[C@H](NC(=O)CCCCCCCCCCCCCCCCCCC(=O)O)C(=O)O)NC(=O)[C@H](CCC(N)=O)NC(=O)[C@H](C)NC(=O)[C@@H](NC(=O)[C@H](CCCCN)NC(=O)[C@H](CC(=O)O)NC(=O)[C@H](CC(C)C)NC(=O)C(C)(C)NC(=O)[C@@H](NC(=O)[C@H](CO)NC(=O)[C@H](Cc1ccc(O)cc1)NC(=O)[C@H](CC(=O)O)NC(=O)[C@H](CO)NC(=O)[C@@H](NC(=O)[C@H](Cc1ccccc1)NC(=O)[C@@H](NC(=O)CNC(=O)[C@H](CCC(=O)O)NC(=O)C[C@@H](C)NC(=O)C(C)(C)c1cc(F)cc(C#N)c1)[C@@H](C)O)[C@@H](C)O)[C@@H](C)CC)[C@@H](C)CC)C(C)C)C(=O)N[C@@H](C)C(=O)NCC(=O)NCC(=O)N1CCC[C@H]1C(=O)N[C@@H](CO)C(=O)N[C@@H](CO)C(=O)NCC(=O)N[C@@H](C)C(=O)N1CCC[C@H]1C(=O)N1CCC[C@H]1C(=O)N1CCC[C@H]1C(=O)N[C@@H](CO)C(N)=O [Compound 223] ({Isobutyryl(2-(3-CN-5-F-Ph))}-[d(β3hA)]EGTFTSDYSI[Aib]LDKIAQK([AEEA-AEEA-γGlu-C20 diacid])AFVQWLIAGGPSSGAPPPS-NH2) | < 6.00 | 6.00 to 7.00 | 42 | < 6.00 | 7.00 to 8.00 | 96 |
| CC[C@H](C)[C@H](NC(=O)[C@H](CO)NC(=O)[C@H](CCCCNC(=O)COCCOCCNC(=O)COCCOCCNC(=O)CC[C@H](NC(=O)CCCCCCCCCCCCCCCCCCC(=O)O)C(=O)O)NC(=O)[C@H](CC(=O)O)NC(=O)[C@H](CO)NC(=O)[C@@H](NC(=O)[C@H](Cc1ccccc1)NC(=O)[C@@H](NC(=O)CNC(=O)[C@H](CCC(=O)O)NC(=O)CCNC(=O)[C@@]1(c2ccccc2)CNC(=O)C1)[C@@H](C)O)[C@@H](C)O)C(=O)N[C@@H](Cc1ccc(O)cc1)C(=O)N[C@@H](CC(C)C)C(=O)N[C@@H](CC(=O)O)C(=O)N[C@@H](CCCCN)C(=O)N[C@@H](CCC(N)=O)C(=O)N[C@@H](C)C(=O)N[C@@H](C)C(=O)NC(C)(C)C(=O)N[C@@H](CCC(=O)O)C(=O)N[C@@H](Cc1ccccc1)C(=O)N[C@H](C(=O)N[C@@H](CC(N)=O)C(=O)N[C@@H](Cc1c[nH]c2ccccc12)C(=O)N[C@@H](CC(C)C)C(=O)N[C@@H](CC(C)C)C(=O)N[C@@H](C)C(=O)NCC(=O)NCC(=O)N1CCC[C@H]1C(=O)N[C@@H](CO)C(=O)N[C@@H](CO)C(=O)NCC(=O)N[C@@H](C)C(=O)N1CCC[C@H]1C(=O)N1CCC[C@H]1C(=O)N1CCC[C@H]1C(=O)N[C@@H](CO)C(N)=O)C(C)C (single isomer, unassigned) [Compound 123] | < 6.00 | 7.00 to 8.00 | 103 | < 6.00 | 7.00 to 8.00 | 95 |
| CC[C@H](C)[C@H](NC(=O)[C@H](CC(C)C)NC(=O)[C@H](Cc1c[nH]c2ccccc12)NC(=O)[C@H](CCC(N)=O)NC(=O)[C@@H](NC(=O)[C@H](Cc1ccccc1)NC(=O)[C@H](C)NC(=O)[C@H](CCCCNC(=O)COCCOCCNC(=O)COCCOCCNC(=O)CC[C@H](NC(=O)CCCCCCCCCCCCCCCCCCC(=O)O)C(=O)O)NC(=O)[C@H](CCC(N)=O)NC(=O)[C@H](C)NC(=O)[C@@H](NC(=O)[C@H](CCCCN)NC(=O)[C@H](CC(=O)O)NC(=O)[C@H](CC(C)C)NC(=O)C(C)(C)NC(=O)[C@@H](NC(=O)[C@H](CO)NC(=O)[C@H](Cc1ccc(O)cc1)NC(=O)[C@H](CC(=O)O)NC(=O)[C@H](CO)NC(=O)[C@@H](NC(=O)[C@H](Cc1ccccc1)NC(=O)[C@@H](NC(=O)CNC(=O)[C@H](CC(=O)O)NC(=O)CCNC(=O)C(C)(C)c1cc(F)cc(C#N)c1)[C@@H](C)O)[C@@H](C)O)[C@@H](C)CC)[C@@H](C)CC)C(C)C)C(=O)N[C@@H](C)C(=O)NCC(=O)NCC(=O)N1CCC[C@H]1C(=O)N[C@@H](CO)C(=O)N[C@@H](CO)C(=O)NCC(=O)N[C@@H](C)C(=O)N1CCC[C@H]1C(=O)N1CCC[C@H]1C(=O)N1CCC[C@H]1C(=O)N[C@@H](CO)C(N)=O [Compound 108] ({Isobutyryl(2-(3-CN-5-F-Ph))-βAla}-DGTFTSDYSI[Aib]LDKIAQK([AEEA-AEEA-γGlu-C20 diacid])AFVQWLIAGGPSSGAPPPS-NH2) | > 6.00 | 8.00 to 9.00 | 95 | < 6.00 | > 10.00 | 93 |
| CC[C@H](C)[C@H](NC(=O)[C@H](CC(C)C)NC(=O)[C@H](Cc1c[nH]c2ccccc12)NC(=O)[C@H](CCC(N)=O)NC(=O)[C@@H](NC(=O)[C@H](Cc1ccccc1)NC(=O)[C@H](C)NC(=O)[C@H](CCCCNC(=O)COCCOCCNC(=O)COCCOCCNC(=O)CC[C@H](NC(=O)CCCCCCCCCCCCCCCCCCC(=O)O)C(=O)O)NC(=O)[C@H](CCC(N)=O)NC(=O)[C@H](C)NC(=O)[C@@H](NC(=O)[C@H](CCCNC(=N)N)NC(=O)[C@H](CC(=O)O)NC(=O)[C@H](CC(C)C)NC(=O)C(C)(C)NC(=O)[C@@H](NC(=O)[C@H](CO)NC(=O)[C@H](Cc1ccc(O)cc1)NC(=O)[C@H](CC(=O)O)NC(=O)[C@H](CO)NC(=O)[C@@H](NC(=O)[C@H](Cc1ccccc1)NC(=O)[C@@H](NC(=O)CNC(=O)[C@H](CCC(=O)O)NC(=O)CCNC(=O)C(C)(C)c1cc(F)cc(C#N)c1)[C@@H](C)O)[C@@H](C)O)[C@@H](C)CC)[C@@H](C)CC)C(C)C)C(=O)N[C@@H](C)C(=O)NCC(=O)NCC(=O)N1CCC[C@H]1C(=O)N[C@@H](CO)C(=O)N[C@@H](CO)C(=O)NCC(=O)N[C@@H](C)C(=O)N1CCC[C@H]1C(=O)N1CCC[C@H]1C(=O)N1CCC[C@H]1C(=O)N[C@@H](CO)C(N)=O [Compound 242] ({Isobutyryl(2-(3-CN-5-F-Ph))-βAla}-EGTFTSDYSI[Aib]LDRIAQK([AEEA-AEEA-γGlu-C20 diacid])AFVQWLIAGGPSSGAPPPS-NH2) | – | 7.00 to 8.00 | 115 | < 6.00 | 9.00 to 10.00 | 99 |
| CC[C@H](C)[C@H](NC(=O)[C@H](CC(C)C)NC(=O)[C@H](Cc1c[nH]c2ccccc12)NC(=O)[C@H](CCC(N)=O)NC(=O)[C@@H](NC(=O)[C@H](Cc1ccccc1)NC(=O)[C@H](C)NC(=O)[C@H](CCCCNC(=O)COCCOCCNC(=O)COCCOCCNC(=O)CC[C@H](NC(=O)CCCCCCCCCCCCCCCCCCC(=O)O)C(=O)O)NC(=O)[C@H](CCC(N)=O)NC(=O)[C@H](C)NC(=O)[C@@H](NC(=O)[C@H](CCCCN)NC(=O)[C@H](CC(=O)O)NC(=O)[C@H](CC(C)C)NC(=O)C(C)(C)NC(=O)[C@@H](NC(=O)[C@H](CO)NC(=O)[C@H](Cc1ccc(O)cc1)NC(=O)[C@H](CC(=O)O)NC(=O)[C@H](CO)NC(=O)[C@@H](NC(=O)[C@H](Cc1ccccc1)NC(=O)[C@@H](NC(=O)CNC(=O)[C@H](CCC(=O)O)NC(=O)CCCNC(=O)C1(c2cccnc2)CCC1)[C@@H](C)O)[C@@H](C)O)[C@@H](C)CC)[C@@H](C)CC)C(C)C)C(=O)N[C@@H](C)C(=O)NCC(=O)NCC(=O)N1CCC[C@H]1C(=O)N[C@@H](CO)C(=O)N[C@@H](CO)C(=O)NCC(=O)N[C@@H](C)C(=O)N1CCC[C@H]1C(=O)N1CCC[C@H]1C(=O)N1CCC[C@H]1C(=O)N[C@@H](CO)C(N)=O [Compound 251] ({X24-GABA}-EGTFTSDYSI[Aib]LDKIAQK([AEEA-AEEA-γGlu-C20 diacid])AFVQWLIAGGPSSGAPPPS-NH2; C-terminus assumed) | – | – | 92 | – | – | 91 |
